From patent US7122686B2, “Analogs of discodermolide and dictyostatin-1, intermediates therefor and methods of synthesis thereof” (University of Pittsburgh, priority 2002, dated 2006)
Entries after “also recorded” stand apart in the source; their conditions may differ.

How the values were obtained:
MDA-MB231 (breast) = assay: Cell growth inhibition, MDA-MB231 (breast); assay type: cell-based, human; conditions: for 50% growth inhibitory concentration: human breast cancer cells; for GI50: Homo sapiens, MDA-MB-231, 72 h, read-out: GI50 (μM) MDA-MB231 (breast)
Experimental: (§1) Cell Growth Inhibition[34] Cells were plated (500–2000 cells/well depending on the cell line) in 96-well microplates, allowed to attach and grow for 48 h, then treated with vehicle (4% DMSO, a concentration that allowed doubling times of 24 h or less) or test agent (50, 10, 2, 0.4 and 0.08 μM for the new agents; 0.001, 0.005, 0.010, 0.020 and 0.100 μM for paclitaxel and discodermolide) for the given times. One plate consisted of cells from each line used for a time zero cell number determination. The other plates in a given determination contained eight wells of control cells, eight wells of medium and each agent concentration tested in quadruplicate. Cell numbers were obtained spectrophotometrically (absorbance at 490 nm minus that at 630 nm) in a Dynamax plate reader after treatment with 3-(4,5-dimethylthiazol-2-yl)-5-(3-carboxymethoxyphenyl)-2-(4-sulfophenyl)-2H-tetrazolium (MTS) using phenazine methanesulfonate as the electron acceptor. After initial screening with the above 5-fold dilutions, fifty percent growth inhibitory concentration (GI50) values were determined for each agent by repeating the screen using 2-fold dilutions (five concentrations) centered on the initial estimated GI50 concentration, again in quadruplicate.

2008 (ovarian) = assay: Cell growth inhibition, 2008 (ovarian); assay type: cell-based, human; conditions: for 50% growth inhibitory concentration: human ovarian cancer cells; for GI50: Homo sapiens, 72 h, read-out: GI50 (μM) 2008 (ovarian)
Experimental: as §1

[1] = system: paclitaxel binding site on tubulin; assay: Paclitaxel binding site inhibition assay ([3H]paclitaxel displacement); set-up: species or system bovine
Experimental: Paclitaxel binding site inhibition assay. A stock solution of [^3H]paclitaxel (26.8 μM, 16.2 Ci/mmol), obtained from the NCI, was prepared in 37% (v/v) DMSO. The test agents were prepared in 25% (v/v) DMSO-0.75 M monosodium glutamate (prepared from a 2M stock solution adjusted to pH 6.6 with HCl). The radiolabeled paclitaxel and test agents, as indicated in terms of final concentrations, were mixed in equal volumes and warmed to 37° C. A reaction mixture (50 μL) containing 0.75 M monosodium glutamate, 4.0 μM tubulin, and 40 μM ddGTP (a non-hydrolyzable analog of GTP) was prepared and incubated at 37° C. for 30 min to preform microtubules. An equivalent volume of drug mixture with [^3H]paclitaxel was added to preformed polymer and incubated for 30 min at 37° C. Bound [^3H]paclitaxel was separated from free drug by centrifugation of the reaction mixtures at 14000 rpm for 20 min at room temperature. Non-specific binding was determined by addition of a 12-fold excess of docetaxel. Radioactive counts from the supernatant (50 μL) were determined by scintillation spectrometry. Bound [^3H]paclitaxel was calculated from the following: total paclitaxel added to each reaction mixture minus the paclitaxel present in the supernatant (free drug). The % bound values were normalized to the control values with no inhibitor added.

PC3 (prostate) = assay: Cell growth inhibition, PC3 (prostate); assay type: cell-based; conditions: Homo sapiens, 72 h, read-out: GI50 (μM) PC3 (prostate)
Experimental: as §1

tubulin = assay: Tubulin polymerization (microtubule stabilizing activity); assay type: biochemical, bovine; conditions: in comparison to 10 μM paclitaxel; turbidity, cold-induced disassembly
Experimental: Tubulin Polymerization.[32] Tubulin assembly was followed in a Beckman-Coulter 7400 spectrophotometer, equipped with an electronic Peltier temperature controller, reading absorbance (turbidity) at 350 nm. Reaction mixtures (0.25 mL final volume) contained tubulin (final concentration 10 μM; 1 mg/mL), monosodium glutamate (0.8 M from a stock solution adjusted to pH 6.6 with HCl), DMSO (final volume 4% v/v), and differing concentrations of test agent where indicated. Reaction mixtures without test agent were cooled to 0° C. and added to cuvettes held at 0.25–0.5° C. in the spectrophotometer. Test agent in DMSO was then rapidly mixed in the reaction mixture. Each run contained one positive control (paclitaxel, 10 μM final concentration) and one negative control (DMSO only). Baselines were established at 0.25–2.5° C. and temperature was rapidly raised to 30° C. (in approximately 1 min) and held there for 20 min.

Compound | 50% growth inhibitory concentration (MDA-MB231 (breast)) | 50% growth inhibitory concentration (2008 (ovarian)) | Tubulin polymerization-inducing properties (FIGS. 6A-D, in words) (tubulin) | further results
C=CC=C[C@H](C)[C@@H](O)[C@H](C)[C@H](O)CCC=C[C@H](C)[C@@H](O)[C@@H](C)C=CCCCCCCCCC(=O)O [Compound 49, (12S,13S,14S,19R,20R,21R,22S)-13,19,21-Trihydroxy-12,14,20,22-tetramethylhexacosa-10,15,23,25-tetraenoic acid] | > 50 µM | > 50 µM | – | –
C=CC=CC(C)[C@H]1OC(=O)C=CC=C[C@@H](C)[C@H](O)CCC=C[C@H](C)[C@H](O)[C@@H](C)C=CCC[C@@H](O)[C@H]1C (stereo partly drawn) [Compound 54, (7R,8R,13S,14S,15S,20R,21R,22R,23S)-8,14,20-Trihydroxy-7,13,15,21-tetramethyl-22-(1-methylpenta-2,4-dienyl)-oxacyclodocosa-3,5,11,16-tetraen-2-one] | about 1 μM | about 1 μM | – | [3H]paclitaxel displacement potency relative to discodermolide ([1]; [3H]paclitaxel stoichiometrically bound to microtubules): about ⅓
C=CC=C[C@H](C)[C@@H](O)[C@H](C)[C@H](O)CCC=C[C@H](C)[C@@H](O)[C@@H](C)C=CCCCCCCCCCO [Compound 47, (12S,13S,14S,19R,20R,21R,22S)-12,14,20,22-Tetramethylhexacosa-10,15,23,25-tetraene-1,13,19,21-tetraol] | 15 to 30 µM | 15 to 30 µM | – | –
C=CC=C[C@H](C)[C@H]1OC(=O)CCCCCCCCC=C[C@H](C)[C@H](O)[C@@H](C)C=CCC[C@@H](O)[C@H]1C [Compound 43, (1S,13S,14S,15S,20R,21R,22R)-14,20-Dihydroxy-13,15,21-trimethyl-22-(1-methylpenta-2,4-dienyl)-oxacyclodocosa-11,16-dien-2-one] | 15 to 30 µM | 15 to 30 µM | – | –
C=C/C=C\[C@H](C)[C@H](OC(N)=O)[C@@H](C)[C@H](O)CC/C=C\[C@H](C)[C@H](O)[C@@H](C)/C=C\CC[C@@H]1O[C@@H](OC)[C@H](C)[C@@H](OCOC)[C@H]1C [Compound 42, Carbamic acid, (1S,2S,3R,6Z,8S,9S,10S,11Z)-3,9-dihydroxy-14-[(2S,3S,4S,5R,6R)-6-methoxy-4-methoxymethoxy-3,5-dimethyltetrahydropyran-2-yl]-2,8,10-trimethyl-1-[(1S,2Z)-1-methylpenta-2,4-dienyl]tetradeca-6,11-dienyl ester] | – | – | more rapid polymer-inducing and cold-resistant properties | GI50 (PC3 (prostate)): 15 ± 3 µM; GI50 (MDA-MB231 (breast)): 3.4 ± 0.8 µM; GI50 (2008 (ovarian)): 4.7 ± 0.6 µM
C=CC=C[C@H](C)[C@@H](O)[C@H](C)[C@H](O)CCC=C[C@H](C)[C@@H](O)[C@@H](C)C=CCCCCCCCCC(=O)OC [Compound 48, (12S,13S,14S,19R,20R,21R,22S)-13,19,21-Trihydroxy-12,14,20,22-tetramethylhexacosa-10,15,23,25-tetraenoic acid methyl ester] | 15 to 30 µM | 15 to 30 µM | – | –
C=C/C=C\[C@H](C)[C@H](OC(N)=O)[C@@H](C)[C@H](O)CC/C=C\[C@H](C)[C@H](O)[C@@H](C)/C=C\CC[C@@H]1OC(=O)[C@H](C)[C@@H](OCOC)[C@H]1C [Compound 41, Carbamic acid, (1S,2S,3R,6Z,8S,9S,10S,11Z)-3,9-dihydroxy-14-[(2S,3S,4S,5R)-4-methoxymethoxy-3,5-dimethyl-6-oxotetrahydropyran-2-yl]-2,8,10-trimethyl-1-[(1S,2Z)-1-methylpenta-2,4-dienyl]tetradeca-6,11-dienyl ester] | submicromolar | – | more rapid polymer-inducing and cold-resistant properties; also recorded: most potent among these analogs | GI50 (PC3 (prostate)): 1.8 ± 0.9 µM; GI50 (MDA-MB231 (breast)): 0.87 ± 0.21 µM; Displacement of [3H]paclitaxel from microtubules (in words) ([1]; 2-fold molar excess of test agent): better than paclitaxel and at almost the same potency as discodermolide; GI50 (2008 (ovarian)): 0.65 ± 0.25 µM
C=C/C=C\[C@H](C)[C@H](OC(N)=O)[C@@H](C)[C@H](O)[C@@H](C)C/C(C)=C\[C@H](C)[C@@H](O)[C@@H](C)/C=C\[C@@H](O)C[C@@H]1OC(=O)[C@H](C)[C@@H](O)[C@H]1C [discodermolide, (+)-discodermolide] | – | – | superior to paclitaxel | –
